Experimental data taken from patent publication EP0417840B1, “Antiviral tetrahydroimidazo [1,4]-benzodiazepines” (JANSSEN PHARMACEUTICA N.V., priority 1989, dated 1991).
In brackets after ≈: the same amount, converted by molar mass.

Tests used:
[1] = in vitro; assay type: cell-based; settings: human, mt-4 cells
Protocol: (§1) A rapid, sensitive and automated assay procedure was used for the in-vitro evaluation of anti-HIV agents. An […] T4-cell line, MT-4, which was previously shown (Koyanagi et al., Int. J. Cancer, 36, 445-451, 1985) to be highly susceptible to and permissive for HIV infection, served as the target cell line. Inhibition of the HIV-induced cytopathic effect was used as the end point. The viability of both HIV- and mock-infected cells was assessed spectrophotometrically via the in-situ reduction of 3-(4,5-dimethylthiazol-2-yl)-2,5-diphenyltetrazolium bromide (MTT). The 50% cytotoxic dose (CD₅₀ in µg/ml) was defined as the concentration of compound that reduced the absorbance of the mock-infected control sample by 50%. The percent protection achieved by the compound in HIV-infected cells was calculated by the following formula: [formula] whereby (ODT)HIV is the optical density measured with a given concentration of the test compound in HIV-infected cells; (ODC)HIV is the optical density measured for the control untreated HIV-infected cells; (ODC)MOCK is the optical density measured for the control untreated mock-infected cells; all optical density values were determined at 540 nm. The dose achieving 50% protection according to the above formula was defined as the 50% effective dose (ED₅₀ in µg/ml). The ratio of CD₅₀ to ED₅₀ was defined as the selectivity index (SI).

[2] = system: HIV; test: Anti-HIV assay: inhibition of the HIV-induced cytopathic effect in MT-4 cells (MTT); assay type: cell-based; settings: for EC50: Human immunodeficiency virus 1, MT4, dose achieving 50% protection of HIV-infected MT-4 cells, MTT, 540 nm, read-out: ED₅₀ (50% effective dose); for SI (selectivity index): ratio of CD₅₀ to ED₅₀
Protocol: as §1

EC50 [2]	Structure (SMILES)	CC50 [1]	SI (selectivity index) [2]
0.24 µg/mL (≈ 0.796 µM)	CC(C)=CCN1[C@H](C)Cn2c(=S)[nH]c3cccc(c32)[C@@H]1C (relative stereo) [Compound 5, cis-4,5,6,7-tetrahydro-5,7-dimethyl-6-(3-methyl-2-butenyl)imidazo[4,5,1-jk][1,4]benzodiazepine-2(1H)thione]	23 µg/mL (≈ 76.3 µM)	96
0.0048 µg/mL (≈ 0.0159 µM)	CC(C)=CCN1[C@H](C)Cn2c(=S)[nH]c3cccc(c32)[C@H]1C (relative stereo) [Compound 6, trans-4,5,6,7-tetrahydro-5,7-dimethyl-6-(3-methyl-2-butenyl)imidazo[4,5,1-jk][1,4]benzodiazepine-2(1H)-thione]	23 µg/mL (≈ 76.3 µM)	4838
0.5 µg/mL (≈ 1.91 µM)	CCCN1CCn2c(=S)[nH]c3cccc(c32)C1C (stereo not drawn) [Compound 2, 4,5,6,7-tetrahydro-7-methyl-6-propylimidazo[4,5,1-jk] [1,4]benzodiazepin-2(1H)-thione]	129 µg/mL (≈ 494 µM)	258
0.1 µg/mL (≈ 0.348 µM)	CC(C)=CCN1CCn2c(=S)[nH]c3cccc(c32)C1C (stereo not drawn) [Compound 3]	177 µg/mL (≈ 616 µM)	1770
